Measurements published in patent US20050203575A1, “Skin microactivation system and method” (Unilever Home & Personal Care USA, Division of Conopco, Inc., priority 2004, published 2005).

System: cellular retinoic acid binding protein II (CRABP II)
Experiment: Clinical trial: CRABP II in human epidermis after topical retinol with or without microneedle treatment (Western blotting)
Type: in vivo
Conditions: once a day for four days
Description: Ten subjects between the ages of 25 and 50 were recruited into a clinical trial to test the efficacy of microneedles 58 after having given informed consent to a protocol approved by an internal review board. Needles 58 that are acupuncture needles (Seirin, 0.12 mm×30 mm) were fixed in narrow diameter plastic tubes, i.e., positioning collars 60, with adhesive so that needle tips protruded approximately 250 microns beyond the end of positioning collar 60. This arrangement prevented excessive penetration during use. The protocol provided for the application on the skin of the lower back of a vehicle alone or vehicle containing either 0.05% or 0.1% retinol. In vehicle alone sites and 0.05% retinol sites microneedles 58 were applied at a density of 100 strikes per square centimeter. Adhesive rings with an internal area of 1.5 square centimeters were used to define the treatment areas. Microneedle device 10 was held in the operator's hand and lightly impacted on the subject's skin. Aliquots of twenty microliters of treatment solution were applied to the relevant sites immediately after microneedling. Sites were treated once a day for four days. On the fifth day epidermal samples were taken with an abrasive probe and placed in extraction buffer (see above). Samples were analysed with polyacrylamide gel electrophoresis and Western blotting for the presence of cellular retinoic acid binding protein II (CRABP II), a protein considered to be a marker for retinoid activity in skin.

## CC1=C(/C=C/C(C)=C/C=C/C(C)=C/CO)C(C)(C)CCC1 [retinol]
Microneedles 100 strikes per square centimeter + 0.05% retinol, P<0.05
  CRABP II expression in epidermis, microneedle + 0.05% retinol versus 0.05% retinol alone: increased CRABP II expression above that seen with 0.05% retinol alone
Microneedles 100 strikes per square centimeter + 0.05% retinol, statistically significant
  CRABP II expression elevation, microneedles + 0.05% retinol versus 0.1% retinol alone: greater than that associated with the 0.1% retinol alone treatment
Vehicle alone, 0.05% or 0.1% retinol on skin of lower back, sampled on fifth day
  CRABP II expression in epidermis: dose-dependent increase in CRABP II
